In patent US6479435B1, “Diaryl ethers and processes for their preparation and herbicidal and desiccant compositions containing them” (ISK Americas Incorporated, priority 1997, dated 2002):

What was measured:
Assay type in all cases: in vivo
[1] = test system: Johnsongrass (Sorghum halepense, SORHA); test: Pre-emerge greenhouse herbicide test, phytotoxicity rating; details: 14 days after application, rating scale 0-100
In short: (§1)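 Seeds sown in sandy loam one day before track-sprayer application of acetone solutions at 125–1000 g ai/ha (187 l/ha), then surface-watered to incorporate and bottom-watered. Injury scored visually at 14 days on a 0–100 scale (0 no damage, 100 complete death).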

[2] = test system: barnyardgrass (Echinochloa crusgalli, ECHCG); test: as above; details: 14 days after application, rating scale 0-100
In short: as §1

[3] = test system: common ragweed (Ambrosia artemisiifolia L., AMBEL); test: as above; details: 14 days after application, rating scale 0-100
In short: as §1

[4] = test system: green foxtail (Setaria viridis, SETVI); test: as above; details: 14 days after application, rating scale 0-100
In short: as §1

[5] = test system: ivyleaf morningglory (Ipomoea hederacea, IPOHE); test: as above; details: 14 days after application, rating scale 0-100
In short: as §1

[6] = test system: lambsquarters (Chenopodium album, CHEAL); test: as above; details: 14 days after application, rating scale 0-100
In short: as §1

[7] = test system: large crabgrass (Digitaria sanguinalis, DIGSA); test: as above; details: 14 days after application, rating scale 0-100
In short: as §1

[8] = test system: redroot pigweed (Amaranthus retroflexus, AMARE); test: as above; details: 14 days after application, rating scale 0-100
In short: as §1

[9] = test system: sicklepod (Cassia obtusifolia, CASOB); test: as above; details: 14 days after application, rating scale 0-100
In short: as §1

[10] = test system: velvetleaf (Abutilon theophrasti, ABUTH); test: as above; details: 14 days after application, rating scale 0-100
In short: as §1

[11] = test system: field corn (Zea mays L., var. Dekalb 535, CORN); test: Pre-emerge greenhouse test, crop damage rating; details: 14 days after application, rating scale 0-100
In short: as §1

[12] = test system: upland rice (Oryza sp., var.Tebonnet, RICE); test: Pre-emerge greenhouse test, crop damage rating; details: 14 days after application, rating scale 0-100
In short: as §1

[13] = test system: soybean (Glycine max L., var. Pella 86, SOY); test: Pre-emerge greenhouse test, crop damage rating; parameters: key to SOY crop damage rating: 0 = no damage, 100 = complete death of all plants; details: 14 days after application, rating scale 0-100
In short: as §1

[14] = test system: common ragweed (Ambrosia artemisiifolia L., AMBEL); test: Post-emerge greenhouse herbicide test, phytotoxicity rating; details: 14 days after application, scale 0-100
In short: (§2)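 Plants at the 2-3 leaf stage, sown 8-21 days earlier, were track-sprayed post-emergence with compound in acetone plus 0.25% v/v non-ionic surfactant at 63-1000 g ai/ha (187 l/ha). Damage was rated at 14 days on a 0-100 scale (0 none, 100 all plants dead), for both crop injury and weed control.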

[15] = test system: Johnsongrass (Sorghum halepense, SORHA); test: as above; details: 14 days after application, scale 0-100
In short: as §2

[16] = test system: barnyardgrass (Echinochloa crusgalli, ECHCG); test: as above; details: 14 days after application, scale 0-100
In short: as §2

[17] = test system: green foxtail (Setaria viridis, SETVI); test: as above; details: 14 days after application, scale 0-100
In short: as §2

[18] = test system: ivyleaf morningglory (Ipomoea hederacea, IPOHE); test: as above; details: 14 days after application, scale 0-100
In short: as §2

[19] = test system: lambsquarters (Chenopodium album, CHEAL); test: as above; details: 14 days after application, scale 0-100
In short: as §2

[20] = test system: large crabgrass (Digitaria sanguinalis, DIGSA); test: as above; details: 14 days after application, scale 0-100
In short: as §2

[21] = test system: redroot pigweed (Amaranthus retroflexus, AMARE); test: as above; details: 14 days after application, scale 0-100
In short: as §2

[22] = test system: sicklepod (Cassia obtusifolia, CASOB); test: as above; details: 14 days after application, scale 0-100
In short: as §2

[23] = test system: velvetleaf (Abutilon theophrasti, ABUTH); test: as above; details: 14 days after application, scale 0-100
In short: as §2

[24] = test system: field corn (Zea mays L., var. Dekalb 535, CORN); test: Post-emerge greenhouse test, crop damage rating; details: 14 days after application, scale 0-100
In short: as §2

[25] = test system: upland rice (Oryza sp., var.Tebonnet, RICE); test: Post-emerge greenhouse test, crop damage rating; details: 14 days after application, scale 0-100
In short: as §2

[26] = test system: soybean (Glycine max L., var. Pella 86, SOY); test: Post-emerge greenhouse test, crop damage rating; parameters: key to crop damage rating SOY: 0-100 scale: 0 = no damage, 100 = complete death of all plants; details: 14 days after application, scale 0-100
In short: as §2

COc1cc(OC)nc(Oc2cc(-n3c(=O)n4n(c3=S)CCCC4)c(F)cc2Cl)n1 [Compound 8-33]
95: phytotoxicity rating AMARE ([21]; rate 63 g ai/ha) | phytotoxicity rating CASOB ([22]; rate 500 g ai/ha)
5: crop damage rating CORN ([24]; rate 63 g ai/ha)
30: SOY crop damage rating ([13]; Rate 500 g al/ha) | phytotoxicity rating SORHA ([15]; rate 500 g ai/ha)
20: ECHCG phytotoxicity rating ([2]; Rate 500 g al/ha) | phytotoxicity rating ECHCG ([16]; rate 63 g ai/ha) | phytotoxicity rating SETVI ([17]; rate 63 g ai/ha)
10: DIGSA phytotoxicity rating ([7]; Rate 125 g al/ha) | RICE crop damage rating ([12]; Rate 500 g al/ha) | phytotoxicity rating SORHA ([15]; rate 63 g ai/ha) | crop damage rating RICE ([25]; rate 500 g ai/ha)
70: IPOHE phytotoxicity rating ([5]; Rate 500 g al/ha) | crop damage rating SOY ([26]; rate 500 g ai/ha)
60: phytotoxicity rating AMBEL ([14]; rate 63 g ai/ha)
80: SETVI phytotoxicity rating ([4]; Rate 125 g al/ha) | phytotoxicity rating SETVI ([17]; rate 500 g ai/ha)
40: SORHA phytotoxicity rating ([1]; Rate 500 g al/ha) | AMBEL phytotoxicity rating ([3]; Rate 500 g al/ha) | CASOB phytotoxicity rating ([9]; Rate 125 g al/ha) | phytotoxicity rating ECHCG ([16]; rate 500 g ai/ha)
90: DIGSA phytotoxicity rating ([7]; Rate 500 g al/ha) | CASOB phytotoxicity rating ([9]; Rate 500 g al/ha) | phytotoxicity rating IPOHE ([18]; rate 63 g ai/ha) | phytotoxicity rating CHEAL ([19]; rate 63 g ai/ha)
100: SETVI phytotoxicity rating ([4]; Rate 500 g al/ha) | CHEAL phytotoxicity rating ([6]; Rate 125 g al/ha) | CHEAL phytotoxicity rating ([6]; Rate 500 g al/ha) | AMARE phytotoxicity rating ([8]; Rate 125 g al/ha) | AMARE phytotoxicity rating ([8]; Rate 500 g al/ha) | ABUTH phytotoxicity rating ([10]; Rate 125 g al/ha) | ABUTH phytotoxicity rating ([10]; Rate 500 g al/ha) | phytotoxicity rating AMBEL ([14]; rate 500 g ai/ha) | phytotoxicity rating IPOHE ([18]; rate 500 g ai/ha) | phytotoxicity rating CHEAL ([19]; rate 500 g ai/ha) | phytotoxicity rating AMARE ([21]; rate 500 g ai/ha) | phytotoxicity rating ABUTH ([23]; rate 63 g ai/ha) | phytotoxicity rating ABUTH ([23]; rate 500 g ai/ha)
55: phytotoxicity rating CASOB ([22]; rate 63 g ai/ha) | crop damage rating SOY ([26]; rate 63 g ai/ha)
0: SORHA phytotoxicity rating ([1]; Rate 125 g al/ha) | ECHCG phytotoxicity rating ([2]; Rate 125 g al/ha) | AMBEL phytotoxicity rating ([3]; Rate 125 g al/ha) | IPOHE phytotoxicity rating ([5]; Rate 125 g al/ha) | CORN crop damage rating ([11]; Rate 500 g al/ha) | SOY crop damage rating ([13]; Rate 125 g al/ha) | phytotoxicity rating DIGSA ([20]; rate 63 g ai/ha) | crop damage rating RICE ([25]; rate 63 g ai/ha)
15: crop damage rating CORN ([24]; rate 500 g ai/ha)
50: phytotoxicity rating DIGSA ([20]; rate 500 g ai/ha)

COc1nc(OC)nc(Oc2cc(-n3c(=O)n4n(c3=S)CCCC4)c(F)cc2Cl)n1 [Compound 8-34]
20: SORHA phytotoxicity rating ([1]; Rate 125 g al/ha) | RICE crop damage rating ([12]; Rate 125 g al/ha) | phytotoxicity rating SETVI ([17]; rate 63 g ai/ha)
5: CORN crop damage rating ([11]; Rate 500 g al/ha) | crop damage rating CORN ([24]; rate 63 g ai/ha)
65: phytotoxicity rating SETVI ([17]; rate 500 g ai/ha)
80: SORHA phytotoxicity rating ([1]; Rate 500 g al/ha) | SETVI phytotoxicity rating ([4]; Rate 125 g al/ha) | IPOHE phytotoxicity rating ([5]; Rate 500 g al/ha) | DIGSA phytotoxicity rating ([7]; Rate 500 g al/ha)
30: phytotoxicity rating CASOB ([22]; rate 63 g ai/ha)
50: RICE crop damage rating ([12]; Rate 500 g al/ha) | phytotoxicity rating AMBEL ([14]; rate 63 g ai/ha) | phytotoxicity rating SORHA ([15]; rate 500 g ai/ha) | phytotoxicity rating AMARE ([21]; rate 63 g ai/ha) | crop damage rating SOY ([26]; rate 63 g ai/ha)
99: SETVI phytotoxicity rating ([4]; Rate 500 g al/ha)
10: DIGSA phytotoxicity rating ([7]; Rate 125 g al/ha) | SOY crop damage rating ([13]; Rate 125 g al/ha) | phytotoxicity rating ECHCG ([16]; rate 63 g ai/ha)
100: AMBEL phytotoxicity rating ([3]; Rate 500 g al/ha) | CHEAL phytotoxicity rating ([6]; Rate 125 g al/ha) | CHEAL phytotoxicity rating ([6]; Rate 500 g al/ha) | AMARE phytotoxicity rating ([8]; Rate 125 g al/ha) | AMARE phytotoxicity rating ([8]; Rate 500 g al/ha) | ABUTH phytotoxicity rating ([10]; Rate 125 g al/ha) | ABUTH phytotoxicity rating ([10]; Rate 500 g al/ha) | phytotoxicity rating IPOHE ([18]; rate 63 g ai/ha) | phytotoxicity rating IPOHE ([18]; rate 500 g ai/ha) | phytotoxicity rating CHEAL ([19]; rate 500 g ai/ha) | phytotoxicity rating AMARE ([21]; rate 500 g ai/ha) | phytotoxicity rating CASOB ([22]; rate 500 g ai/ha) | phytotoxicity rating ABUTH ([23]; rate 500 g ai/ha)
0: ECHCG phytotoxicity rating ([2]; Rate 125 g al/ha) | IPOHE phytotoxicity rating ([5]; Rate 125 g al/ha) | CASOB phytotoxicity rating ([9]; Rate 125 g al/ha) | CORN crop damage rating ([11]; Rate 125 g al/ha) | SOY crop damage rating ([13]; Rate 500 g al/ha) | phytotoxicity rating SORHA ([15]; rate 63 g ai/ha) | phytotoxicity rating ECHCG ([16]; rate 500 g ai/ha) | phytotoxicity rating DIGSA ([20]; rate 63 g ai/ha) | crop damage rating RICE ([25]; rate 63 g ai/ha)
15: crop damage rating CORN ([24]; rate 500 g ai/ha)
95: phytotoxicity rating AMBEL ([14]; rate 500 g ai/ha) | phytotoxicity rating CHEAL ([19]; rate 63 g ai/ha) | phytotoxicity rating ABUTH ([23]; rate 63 g ai/ha)
40: ECHCG phytotoxicity rating ([2]; Rate 500 g al/ha) | AMBEL phytotoxicity rating ([3]; Rate 125 g al/ha) | CASOB phytotoxicity rating ([9]; Rate 500 g al/ha) | phytotoxicity rating DIGSA ([20]; rate 500 g ai/ha) | crop damage rating RICE ([25]; rate 500 g ai/ha)
90: crop damage rating SOY ([26]; rate 500 g ai/ha)
